In the supplement of paper PMC9780213:

Experiments:
Settings in all cases: treatment time: 24 h
U2OS-LMNB1-TUBA1B-ACTB = assay: cell count relative to DMSO control (panel C1, DRAQ5/ER stain) (fraction of control); higher = more cells (less toxicity)
Protocol: (§1)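 U2OS-derived cells in 384-well plates were treated for 24 h with a 7-point 2-fold dilution series (top dose 20 µM for most compounds; final max DMSO 1%), then fixed, stained in four marker panels and imaged on a Cellomics ArrayScan. Cell count per treatment (three replicate plates merged) is given as a fraction of DMSO control. Panel A used parental U2OS, panel B U2OS-mOrange2-Peroxisome, panel C1 U2OS-LMNB1-TUBA1B-ACTB (DRAQ5 nuclei).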

U2OS-mOrange2-Peroxisome = assay: cell count relative to DMSO control (panel B, lysosome/peroxisome/lipid stain) (fraction of control); higher = more cells (less toxicity)
Protocol: as §1

U2OS = assay: cell count relative to DMSO control (panel A, nuclei/RNA/PMG/mitochondria stain) (fraction of control); higher = more cells (less toxicity)
Protocol: as §1

Row | Compound | cell count (U2OS-LMNB1-TUBA1B-ACTB; 0.3125 µM) | cell count (U2OS-LMNB1-TUBA1B-ACTB; 0.625 µM) | cell count (U2OS-LMNB1-TUBA1B-ACTB; 1.25 µM) | cell count (U2OS-LMNB1-TUBA1B-ACTB; 2.5 µM) | cell count (U2OS-LMNB1-TUBA1B-ACTB; 5 µM) | cell count (U2OS-LMNB1-TUBA1B-ACTB; 10 µM) | cell count (U2OS-LMNB1-TUBA1B-ACTB; 20 µM) | cell count (U2OS-mOrange2-Peroxisome; 0.3125 µM) | cell count (U2OS-mOrange2-Peroxisome; 0.625 µM) | cell count (U2OS-mOrange2-Peroxisome; 1.25 µM) | cell count (U2OS-mOrange2-Peroxisome; 2.5 µM) | cell count (U2OS-mOrange2-Peroxisome; 5 µM) | cell count (U2OS-mOrange2-Peroxisome; 10 µM) | cell count (U2OS-mOrange2-Peroxisome; 20 µM) | cell count (U2OS; 0.3125 µM) | cell count (U2OS; 0.625 µM) | cell count (U2OS; 1.25 µM) | cell count (U2OS; 2.5 µM) | cell count (U2OS; 5 µM) | cell count (U2OS; 10 µM) | cell count (U2OS; 20 µM)
1 | CC(C=CC(=O)NO)=C[C@@H](C)C(=O)c1ccc(N(C)C)cc1 [trichostatin-a] | 1.04 | 0.942 | 0.773 | 0.619 | 0.639 | 0.517 | 0.314 | 0.582 | 0.501 | 0.516 | 0.585 | 0.605 | 0.228 | 0.0857 | 0.888 | 0.737 | 0.497 | 0.466 | 0.427 | 0.258 | 0.142
2 | CCc1c2c(nc3ccc(OC(=O)N4CCC(N5CCCCC5)CC4)cc13)-c1cc3c(c(=O)n1C2)COC(=O)[C@]3(O)CC [irinotecan] | 0.966 | 0.998 | 0.849 | 0.82 | 0.79 | 0.694 | 0.66 | 0.759 | 0.66 | 0.641 | 0.621 | 0.666 | 0.771 | 0.742 | 0.95 | 0.795 | 0.732 | 0.665 | 0.64 | 0.592 | 0.612
